{"source": "patent US20230271950A1", "about": "“ANTIBACTERIAL PICOLINAMIDE COMPOUNDS” (University of Notre Dame Du Lac, priority 2020, published 2023)", "key": {"C. difficile": {"test_system": "C. difficile", "experiment": "MIC by broth microdilution against C. difficile strains", "assay_type": "cell-based, Clostridioides difficile", "details": "Clostridioides difficile, ATCC43255, C. difficile ATCC43255; FIG. 2 legend; read-out: MIC of positive controls"}, "C. difficile ATCC43255": {"test_system": "C. difficile ATCC43255", "experiment": "Macromolecular synthesis assay (radioactive precursor incorporation)", "assay_type": "cell-based, Clostridioides difficile", "details": "0.5×MIC, N-acetyl-d-[6-^3H]glucosamine incorporation, 120 min", "protocol": "FIG. 2. Mechanism of action of compound 1. (A) Macromolecular biosynthesis assays: Compound 1 was incubated with C. difficile ATCC43255 at 0.5×MIC. […] The incubation time was 60 min for DNA, 120 min for peptidoglycan synthesis and RNA, and 180 min for protein synthesis. (B-G) Imaging of C. difficile […] vegetative cells (logarithmic growth) by scanning electron microscopy.\nThe mechanism of action of 1 was investigated using macromolecular synthesis assays. These assays measure the incorporation of radioactive precursors ([2,8-^3H]-adenine, [5,6-^3H]-uridine, 1-[3,4,5-^3H(N)]-leucine, and N-acetyl-d-[6-^3H]glucosamine) respectively into DNA, RNA, protein, and peptidoglycan. […] This analysis visualizes the cell wall as the outermost layer of the cell envelope of Gram-positive bacteria such as C. difficile.\nMacromolecular synthesis assay. The macromolecular synthesis assay was performed by established methods. […] The radiolabeled precursors were purchased from Perkin Elmer (Waltham, Mass., USA)."}}, "data": [{"compound": "Cc1onc(-c2ccccc2)c1C(=O)N[C@@H]1C(=O)N2[C@@H]1SC(C)(C)[C@@H]2C(=O)O", "note": "[oxacillin, reference compound]", "values": [{"measurement": "MIC", "setting": "C. difficile", "result": 8, "unit": "µg/mL"}, {"measurement": "inhibition of cell-wall peptidoglycan biosynthesis", "setting": "C. difficile ATCC43255", "result": "51±1", "unit": "%"}]}]}
